The text below walks through data of patent publication US4259342A, “Antianginal treatment with azepine derivatives” (priority 1978, dated 1981).

One series relates to vagotomized rats. In words: heart rate lowering effect on vagotomized rats. The conditions noted are these: Rattus norvegicus, iv, 0.5 h, read-out: D50 (dose which lowers the heart rate by 50 beats/min.). In kind it is in vivo.
Series [1] in a line: acute toxicity in mice after administration per os (Litchfield and Wilcoxon). The conditions noted are these: mouse, in vivo, po, mice of both sexes, deaths within 14 days. On the procedure: The acute toxicity was determined in mice of both sexes with an average body weight of 20 gm after administration per os. From the percentage of the animals which died within 14 days after the administration of various doses, the LD50 was determined according to the method of Litchfield and Wilcoxon (J. Pharmacol. exp. Ther. 96, 99 (1949): […]

For series [2], the system named is patients with angina pectoris. Description: exercise test on bicycle ergometer in patients with angina pectoris, crossover single-blind against placebo (antianginal activity). It is filed as in vivo. The procedure:
The antianginal activity of
was determined in patients with angina pectoris as follows:
11 Patients with clinical and electrocardiographic symptoms of coronary insufficiency were selected for a crossover comparative single-blind study of compound A against placebo. Only those patients were allocated to one of the 2 treatments who complained of precordial pain at the same workload on 3 different days during the run-in period. In order to avoid carry-over effects the sequence of treatment was A placebo in every patient. 30 minutes after the injection of the test substance the patients were exercised on a bicycle ergometer. They started with a workload of 25 watts, which was increased every 3 minutes by 25 watts until the onset of pain. The heart rate and the blood pressure were registered every minute. The heart rate was determined by means of an ECG; the measurement of the blood pressure was carried out according to Riva-Rocci always by the same medical assistant.
The following parameters were evaluated:
1. Time until the onset of pain
2. Heart rate at the onset of pain
3. Blood pressure at the onset of pain
4. The workload performed, resulting from the sum of the products multiplied by the watts per minute (W×min).
5. The maximum workload, which results from the watts of the last complete exercise period (lasting 3 minutes) and the watts of the next unfinished period (watts)
6. The pressure frequency product as index for the oxygen consumption, which was calculated from the product of the heart rate and of the systolic blood pressure.
Since some patients reported pain without depression of the ST segment, ST segment was not evaluated

Where [3] appears, read: i.v., vagotomized rats, 30 minutes after administration, 3 dosages, 6 animals each.
[4] abbreviates: at the moment of the highest comparable workload, 30 minutes after injection.
Where [5] appears, read: at the onset of pain, 30 minutes after injection.

Structures can show the parent of a compound that is named as a salt. Where two headings read alike, the source gives them in different places. Where only a bound is given, the exact number is not on record here.

Experimental for vagotomized rats: were tested as follows with regard to their heart rate lowering effect on vagotomized rats:
The animals were vagotomized and received a tracheal cannula; a polyethylene catheter was placed into the jugular vein. For measuring the ECG, needle electrodes were clamped to the extremities. During the test the body temperature of the animals was kept constant (34° C.).
After balancing out a constant starting heart rate (determined by counting the heart beats from the ECG), the test compound was intravenously administered to the animal. 30 minutes later the type was measured again.
Each compound was tested at 3 dosages administered to each of 6 animals; only one compound and dose per animal.
The average of the 6 single values per dose (Δ heart rate in beats/min.) was determined, and the dose activity curves were prepared, from which the D50 (dose which lowers the heart rate by 50 beats/min.) was determined:

As for `C=CCN1CCc2nc(N)oc2CC1` [B, 2-Amino-6-allyl-4,5,7,8-tetrahydro-6H-oxoazolo[5,4-d]azepine dihydrochloride], the ED (50 beats/min) in the series on vagotomized rats (setting [3]) was 0.1 mg/kg.

As for `CCN1CCc2nc(N)sc2CC1.Cl.Cl` [C, 2-Amino-6-ethyl-4,5,7,8-tetrahydro-6H-thiazolo[5,4-d]azepine dihydrochloride], in series [1], the LD50 (in general, the dose at which mortality reaches 50%) at 336 h is > 1500 mg/kg. The ED (50 beats/min) in the series with vagotomized rats (setting [3]) stood at 0.032 mg/kg.

Regarding `CCN1CCc2nc(N)oc2CC1.Cl.Cl` [Compound A, 2-Amino-6-ethyl-4,5,7,8-tetrahydro-6H-oxazolo[5,4-d]azepine dihydrochloride], in series [1], the LD50 at 336 h was 2210 mg/kg. Also, the ED (50 beats/min) with vagotomized rats stood at 0.5 mg/kg. Moreover, in series [2] (30 minutes after injection, control 6 minutes on the average), the “increase of duration of exercise performance (time patients could be exercised longer) vs control” value was 2 min. Moreover, the “reduction of heart rate at the highest comparable workload” value in series [2] (at the highest comparable workload, 30 minutes after injection) was 12 beats/min. Also, in series [2] (setting [4]), the “diastolic blood pressure at the highest comparable workload” value is given as “unchanged” and the “reduction of systolic blood pressure at the highest comparable workload” value was found to be 19 mm Hg. Further, in series [2] (setting [5]), the “diastolic blood pressure at the onset of pain” value is given as “unchanged”, the “increase of heart rate at the onset of pain” value is recorded as 2 beats/min and the “reduction of systolic blood pressure at the onset of pain” value turned out to be 8 mm Hg. Further, the “difference of heart rate between placebo and compound A during the last complete minute before stopping” value in series [2] (last complete minute before stopping, direction not given) turned out to be 3 beats/min. Further, in series [2] (last minute before stopping), the “reduction of systolic blood pressure over placebo during the last minute before stopping” value was found to be 9 mm Hg. In addition, the “product of pressure frequency during the last minute before stopping” value in series [2] (last minute before stopping, placebo 313) was found to be 295. Further, the “product of pressure frequency at the highest comparable strain” value in series [2] (moment of the highest comparable strain, placebo 310) was 258. The “maximum work (maximum workload)” value in series [2] (placebo 76 watts) was found to be 87 watts. For the same molecule, in series [2] (placebo 495 W×min), the “average work performed until workload was stopped” value is 627 W×min. Besides, in series [2] (summary in words), the “O2 consumption of the heart (concluded from rate/pressure product)” value is “diminishes O2 consumption”; the “effect on duration of exercise and exercise capacity” value was “increases the duration of exercise and exercise capacity”.

Consider `CCCN1CCc2nc(N)sc2CC1.Cl.Cl` [Compound D, 2-Amino-6-n-propyl-4,5,7,8-tetrahydro-6H-thiazolo[5,4-d]azepine dihydrochloride], for which the ED (50 beats/min) in the series on vagotomized rats (setting [3]) turned out to be 0.012 mg/kg.

`C=CCN1CCc2nc(N)sc2CC1.Cl.Cl` [E, 2-Amino-6-allyl-4,5,7,8-tetrahydro-6H-thiazolo[5,4-d]azepine dihydrochloride] came in with an LD50 at 336 h in series [1] of 455 mg/kg. Further, in the series on vagotomized rats (setting [3]), the ED (50 beats/min) came to 0.042 mg/kg.

For the molecule `Cl.Cl.Nc1nc2c(s1)CCN(CCO)CC2` [F, 2-Amino-6-(2-hydroxy-ethyl)-4,5,7,8-tetrahydro-6H-thiazolo[5,4-d]azepine dihydrochloride], the median lethal dose (LD50) at 336 h in series [1] is ~1000 mg/kg. Further, the ED (50 beats/min) in the series with vagotomized rats (setting [3]) stood at 0.037 mg/kg.

`Nc1nc2c(s1)CCN(Cc1ccc(Cl)cc1)CC2` [G, 2-Amino-6-(4-chloro-benzyl)-4,5,7,8-tetrahydro-6H-thiazolo[5,4-d]azepine dihydrocloride]: in series [1], the LD50 at 336 h was found to be 905 mg/kg. Besides, the ED (50 beats/min) with vagotomized rats (setting [3]) came to 1.4 mg/kg.
